Laboratory results reported in patent US8450320B2, “Pyrrolopyrazinone inhibitors of kinases” (AbbVie Inc., priority 2010, dated 2013).

These compounds were tested against T1, Cdc7 (BEV coexpressed huCDC7/DBF4) (Homo sapiens, UniProt O00311) (assay: Cdc7 enzyme inhibition assay ([33P]-ATP, biotinylated peptide substrate, FlashPlate)). Conditions: Ki generated from IC50 assuming ATP-competitive inhibition; 1 μM ATP, apparent ATP Km 0.7 μM.
T1 construct: made in house; host or cells: BEV (baculovirus expression vector)
T1 sequence (O00311 whole entry): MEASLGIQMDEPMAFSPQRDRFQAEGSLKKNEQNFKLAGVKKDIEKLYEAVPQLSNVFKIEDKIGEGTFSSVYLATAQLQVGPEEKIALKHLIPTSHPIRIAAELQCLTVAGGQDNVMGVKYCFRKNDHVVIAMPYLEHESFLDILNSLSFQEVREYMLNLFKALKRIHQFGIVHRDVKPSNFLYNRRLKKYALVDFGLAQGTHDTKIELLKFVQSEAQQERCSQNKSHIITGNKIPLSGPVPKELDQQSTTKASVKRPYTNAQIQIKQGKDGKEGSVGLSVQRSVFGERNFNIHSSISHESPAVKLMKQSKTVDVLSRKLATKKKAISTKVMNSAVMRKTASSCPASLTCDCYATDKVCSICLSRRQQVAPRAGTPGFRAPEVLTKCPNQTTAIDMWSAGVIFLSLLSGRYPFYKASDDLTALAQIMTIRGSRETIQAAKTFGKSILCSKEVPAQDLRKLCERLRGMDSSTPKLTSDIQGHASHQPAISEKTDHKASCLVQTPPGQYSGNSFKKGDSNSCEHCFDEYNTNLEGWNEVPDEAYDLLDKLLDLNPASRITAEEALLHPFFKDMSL
T1 sequence (Q9UBU7 whole entry partner): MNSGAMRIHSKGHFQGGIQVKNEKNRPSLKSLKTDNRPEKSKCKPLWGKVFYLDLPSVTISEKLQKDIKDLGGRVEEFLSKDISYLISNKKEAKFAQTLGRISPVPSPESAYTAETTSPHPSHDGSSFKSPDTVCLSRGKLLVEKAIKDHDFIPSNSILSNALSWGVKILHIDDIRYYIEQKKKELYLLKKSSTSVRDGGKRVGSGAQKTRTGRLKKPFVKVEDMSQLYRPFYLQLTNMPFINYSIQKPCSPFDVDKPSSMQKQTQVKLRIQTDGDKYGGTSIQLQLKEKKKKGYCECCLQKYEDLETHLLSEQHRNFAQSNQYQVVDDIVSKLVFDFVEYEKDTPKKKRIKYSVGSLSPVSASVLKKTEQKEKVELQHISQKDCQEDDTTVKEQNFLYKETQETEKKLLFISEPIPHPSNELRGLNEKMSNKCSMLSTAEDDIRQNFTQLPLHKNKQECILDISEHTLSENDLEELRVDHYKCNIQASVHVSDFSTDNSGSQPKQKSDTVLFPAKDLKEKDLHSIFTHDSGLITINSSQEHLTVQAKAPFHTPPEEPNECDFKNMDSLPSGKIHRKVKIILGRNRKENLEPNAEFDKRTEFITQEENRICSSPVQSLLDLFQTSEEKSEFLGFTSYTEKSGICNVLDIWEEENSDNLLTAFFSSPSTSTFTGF
Format: biochemical
Protocol: This example describes the assays that may be used to identify compounds having kinase activity.
Cdc7 (BEV coexpressed huCDC7/DBF4) is prepared internally. Cdc7 assays are conducted as follows with final concentrations as listed. In 384-well v-bottom polypropylene plates, 6 μL compound (2% DMSO), is mixed with 6 μL of Cdc7 (2 ug/mL), and Jerini peptide substrate A-All (biotin-C6linker-TPSDSLIYDDGLS) (2 μM), followed by immediate initiation with 6 μL […] (1 μM, 20 mCi/μmol) using a reaction buffer comprising 25 mM HEPES, pH 7.5, 1 mM DTT, 10 mM MgCl2, 100 μM Na3VO4, 0.075 mg/ml Triton X-100. Reactions are quenched after 1 hr by the addition of 90 μL stop buffer (50 mM EDTA, 2M NaCl). 85 μL of the stopped reactions are transferred to 384-well streptavidin-coated plates (FlashPlate Plus, Perkin Elmer), incubated 30 minutes at room temperature and washed 3 times with 0.05% Tween-20/PBS using an ELX-405 automated plate washer (BioTek), and counted on a TopCount Scintillation Plate Reader (Packard). IC50 values are determined via non-linear regression fitting of enzyme inhibition data and corresponding Ki values are generated assuming ATP-competitive (equilibrium) inhibition and using the experimentally determined apparent ATP Km of 0.7 μM (as determined using the above assay condition, but varying ATP).
Table 1 depicts enzyme inhibition data (Ki) for exemplary compounds. In Table 1, “A” represents a Ki of less than 10 nM, “B” represents a Ki of between 10 nM and 100 nM, and “C” represents a Ki of greater than 100 nM.

Structure (SMILES)	Ki [nM]
O=c1[nH]cc(Cc2cccc(N(C3CCC3)C3CCC3)c2)n2cc(-c3c[nH]c4ncccc34)cc12 [Example 27, 4-[3-(dicyclobutylamino)benzyl]-7-(1H-pyrrolo[2,3-b]pyridin-3-yl)pyrrolo[1,2-a]pyrazin-1(2H)-one]	10 to 100
O=C(Nc1ccc(Cc2c[nH]c(=O)c3cc(-c4c[nH]c5ncccc45)cn23)cc1)c1cccnc1 [Example 28, N-(4-{[1-oxo-7-(1H-pyrrolo[2,3-b]pyridin-3-yl)-1,2-dihydropyrrolo[1,2-a]pyrazin-4-yl]methyl}phenyl)nicotinamide]	< 10
O=c1[nH]cc(Cc2ccc(CNS(=O)(=O)C3CC3)cc2)n2cc(-c3c[nH]c4ncccc34)cc12 [Example 29, N-(4-{[1-oxo-7-(1H-pyrrolo[2,3-b]pyridin-3-yl)-1,2-dihydropyrrolo[1,2-a]pyrazin-4-yl]methyl}benzyl)cyclopropanesulfonamide]	< 10
O=c1[nH]cc(Cc2ccc(CN(C3CCC3)C3CCC3)cc2)n2cc(-c3c[nH]c4ncccc34)cc12 [Example 30, 4-{4-[(dicyclobutylamino)methyl]benzyl}-7-(1H-pyrrolo[2,3-b]pyridin-3-yl)pyrrolo[1,2-a]pyrazin-1(2H)-one]	10 to 100
CS(=O)(=O)NCc1ccc(Cc2c[nH]c(=O)c3cc(-c4c[nH]c5ncccc45)cn23)cc1 [Example 31, N-(4-{[1-oxo-7-(1H-pyrrolo[2,3-b]pyridin-3-yl)-1,2-dihydropyrrolo[1,2-a]pyrazin-4-yl]methyl}benzyl)methanesulfonamide]	< 10
CC(C)N1CCC(Nc2ccc(Cc3c[nH]c(=O)c4cc(-c5c[nH]c6ncccc56)cn34)cc2)CC1 [Example 32, 4-{4-[(1-isopropylpiperidin-4-yl)amino]benzyl}-7-(1H-pyrrolo[2,3-b]pyridin-3-yl)pyrrolo[1,2-a]pyrazin-1(2H)-one]	< 10
CN(C)CC(=O)Nc1cccc(Cc2c[nH]c(=O)c3cc(-c4c[nH]c5ncccc45)cn23)c1 [Example 33, N^2,N^2-dimethyl-N-(3-{[1-oxo-7-(1H-pyrrolo[2,3-b]pyridin-3-yl)-1,2-dihydropyrrolo[1,2-a]pyrazin-4-yl]methyl}phenyl)glycinamide]	< 10
CN(C)CC(=O)NCc1ccc(Cc2c[nH]c(=O)c3cc(-c4c[nH]c5ncccc45)cn23)cc1 [Example 34, N^2,N^2-dimethyl-N-(4-{[1-oxo-7-(1H-pyrrolo[2,3-b]pyridin-3-yl)-1,2-dihydropyrrolo[1,2-a]pyrazin-4-yl]methyl}benzyl)glycinamide]	< 10
CCC(CC)Nc1ccc(Cc2c[nH]c(=O)c3cc(-c4c[nH]c5ncccc45)cn23)cc1 [Example 35, 4-[4-(pentan-3-ylamino)benzyl]-7-(1H-pyrrolo[2,3-b]pyridin-3-yl)pyrrolo[1,2-a]pyrazin-1(2H)-one]	10 to 100
CN(C)Cc1ccc(Cc2c[nH]c(=O)c3cc(-c4c[nH]c5ncccc45)cn23)cc1 [Example 36, 4-{4-[(dimethylamino)methyl]benzyl}-7-(1H-pyrrolo[2,3-b]pyridin-3-yl)pyrrolo[1,2-a]pyrazin-1(2H)-one]	< 10
NCc1ccc(Cc2c[nH]c(=O)c3cc(-c4c[nH]c5ncccc45)cn23)cc1 [Example 37, 4-[4-(aminomethyl)benzyl]-7-(1H-pyrrolo[2,3-b]pyridin-3-yl)pyrrolo[1,2-a]pyrazin-1(2H)-one]	< 10
CS(=O)(=O)Nc1ccc(Cc2c[nH]c(=O)c3cc(-c4c[nH]c5ncccc45)cn23)cc1 [Example 38, N-(4-{[1-oxo-7-(1H-pyrrolo[2,3-b]pyridin-3-yl)-1,2-dihydropyrrolo[1,2-a]pyrazin-4-yl]methyl}phenyl)methanesulfonamide]	< 10
CC(Nc1ccc(Cc2c[nH]c(=O)c3cc(-c4c[nH]c5ncccc45)cn23)cc1)C1CC1 (stereo not shown) [Example 39, 4-{4-[(1-cyclopropylethyl)amino]benzyl}-7-(1H-pyrrolo[2,3-b]pyridin-3-yl)pyrrolo[1,2-a]pyrazin-1(2H)-one]	< 10
CN1CCCC(C(=O)Nc2ccc(Cc3c[nH]c(=O)c4cc(-c5c[nH]c6ncccc56)cn34)cc2)C1 (stereo not shown) [Example 40, 1-methyl-N-(4-{[1-oxo-7-(1H-pyrrolo[2,3-b]pyridin-3-yl)-1,2-dihydropyrrolo[1,2-a]pyrazin-4-yl]methyl}phenyl)piperidine-3-carboxamide]	< 10
CN(C)c1cccc(Cc2c[nH]c(=O)c3cc(-c4c[nH]c5ncccc45)cn23)c1 [Example 41, 4-[3-(dimethylamino)benzyl]-7-(1H-pyrrolo[2,3-b]pyridin-3-yl)pyrrolo[1,2-a]pyrazin-1(2H)-one]	< 10
O=C(Nc1ccc(Cc2c[nH]c(=O)c3cc(-c4c[nH]c5ncccc45)cn23)cc1)c1ccccc1 [Example 42, N-(4-{[1-oxo-7-(1H-pyrrolo[2,3-b]pyridin-3-yl)-1,2-dihydropyrrolo[1,2-a]pyrazin-4-yl]methyl}phenyl)benzamide]	< 10
CS(=O)(=O)Nc1ccc(C(=O)c2c[nH]c(=O)c3cc(-c4c[nH]c5ncccc45)cn23)cc1 [Example 43, N-(4-{[1-oxo-7-(1H-pyrrolo[2,3-b]pyridin-3-yl)-1,2-dihydropyrrolo[1,2-a]pyrazin-4-yl]carbonyl}phenyl)methanesulfonamide]	< 10
NC1CCC(NCc2ccc(Cc3c[nH]c(=O)c4cc(-c5c[nH]c6ncccc56)cn34)cc2)CC1 (stereo not shown) [Example 44, 4-(4-{[(4-aminocyclohexyl)amino]methyl}benzyl)-7-(1H-pyrrolo[2,3-b]pyridin-3-yl)pyrrolo[1,2-a]pyrazin-1(2H)-one]	< 10
CC(=O)NCc1ccc(Cc2c[nH]c(=O)c3cc(-c4c[nH]c5ncccc45)cn23)cc1 [Example 45, N-(4-{[1-oxo-7-(1H-pyrrolo[2,3-b]pyridin-3-yl)-1,2-dihydropyrrolo[1,2-a]pyrazin-4-yl]methyl}benzyl)acetamide]	> 100
